Activity and EC50 data for one compound are collected here from ChEMBL document CHEMBL3046815, “Evaluation of fungicides for the management of Botryosphaeria dieback diseases of grapevines” (Pest Manag Sci, 2012).

Experiment [1] concerns Neofusicoccum luteum. Briefly: Fungicidal activity against Neofusicoccum luteum infected Pinot noir grapevine assessed as pathogen incidence at 25 g AI /100 L applied 24 hr prior inoculation to pruning wound measured after 3 months. The class given is functional.
In experiment [2] the test system is Neofusicoccum luteum. Nature of the experiment: Fungicidal activity against Neofusicoccum luteum infected Pinot noir grapevine assessed as dieback lesion length at 25 g AI /100 L applied 24 hr prior inoculation to pruning wound measured after 3 months. It is filed as functional.
The next experiment has as its system Diplodia mutila. Briefly: Fungicidal activity against Diplodia mutila Q assessed as conidial germination inhibition after 48 hr. To be noted: pooled result: one value given for 3 cell lines, strains, targets or settings. It is filed as functional, organism-based.
Experiment [3] deals with Neofusicoccum luteum. Briefly: Fungicidal activity against Neofusicoccum luteum infected Pinot noir grapevine assessed as non-lesion areas compound applied 24 hr prior inoculation to pruning wound measured after 1 year. It is filed as functional. Set-up: concentration or dose not given beside the values.
The subject of experiment [4] is Neofusicoccum luteum. Briefly: Fungicidal activity against Neofusicoccum luteum infected Pinot noir grapevine assessed as pathogen incidence at dieback edges compound applied 24 hr prior inoculation to pruning wound measured after 1 year. Further details: concentration or dose not given beside the values. It is filed as functional.
In experiment [5] the test system is Neofusicoccum luteum. Nature of the experiment: Fungicidal activity against Neofusicoccum luteum infected Pinot noir grapevine assessed as pathogen incidence at dieback sites compound applied 24 hr prior inoculation to pruning wound measured after 1 year. It is filed as functional. Set-up: concentration or dose not given beside the values.
In experiment [6] the test system is Neofusicoccum luteum. Nature of the experiment: Fungicidal activity against Neofusicoccum luteum N(12)2 assessed as conidial germination inhibition after 48 hr. It is filed as functional, organism-based. The note with it: pooled result: one value given for 3 cell lines, strains, targets or settings.
In experiment [7] the test system is Neofusicoccum australe. Nature of the experiment: Fungicidal activity against Neofusicoccum australe J-3 assessed as conidial germination inhibition after 48 hr. The class given is functional, organism-based. The note with it: pooled result: one value given for 3 cell lines, strains, targets or settings.
Experiment [8] deals with Neofusicoccum luteum. Nature of the experiment: Fungicidal activity against Neofusicoccum luteum N(12)2 assessed as mycelial growth inhibition after 48 hr. It is filed as functional, organism-based. The note with it: pooled result: one value given for 3 cell lines, strains, targets or settings.
Experiment [9] concerns Neofusicoccum australe. Nature of the experiment: Fungicidal activity against Neofusicoccum australe J-3 assessed as mycelial growth inhibition after 48 hr. It is filed as functional, organism-based. The note with it: pooled result: one value given for 3 cell lines, strains, targets or settings.
Experiment [10] relates to Neofusicoccum luteum. Nature of the experiment: Fungicidal activity against Neofusicoccum luteum infected Pinot noir grapevine assessed as mean pathogen compound applied 24 hr prior inoculation to pruning wound measured after 1 year. Set-up: concentration or dose not given beside the values. It is filed as functional.
In experiment [11] the test system is Neofusicoccum luteum. Briefly: Fungicidal activity against Neofusicoccum luteum infected Pinot noir grapevine assessed as pathogen incidence at area beyond node compound applied 24 hr prior inoculation to pruning wound measured after 1 year. The class given is functional. Further details: concentration or dose not given beside the values.
Experiment [12] deals with Neofusicoccum luteum. Nature of the experiment: Fungicidal activity against Neofusicoccum luteum infected Pinot noir grapevine assessed as pathogen incidence at closest side shoot compound applied 24 hr prior inoculation to pruning wound measured after 6 months. It is filed as functional. Further details: concentration or dose not given beside the values.

On to `COC(=O)Nc1nc2ccccc2[nH]1` [CARBENDAZIM], for which the Activity in the experiment with Neofusicoccum luteum [1] is listed as 0%; in the experiment with Neofusicoccum luteum [2] it was 33.2 mm; with Neofusicoccum luteum [3] it was 7%; in the experiment with Neofusicoccum luteum [4] it was 10%; in the experiment on Neofusicoccum luteum [5], 27%; with Neofusicoccum luteum [10], 9%. The Activity in the experiment with Neofusicoccum luteum [11] amounted to 0%; in the experiment with Neofusicoccum luteum [12] it was 3%. Further, the EC50 with Diplodia mutila worked out at 0.01 mgAi/L; with Neofusicoccum luteum [6], 0.04 mgAi/L; with Neofusicoccum australe [7], 0.01 mgAi/L; in the experiment on Neofusicoccum luteum [8], 0.061 mgAi/L; in the experiment with Neofusicoccum australe [9], 0.023 mgAi/L.
